# According to patent US20090270474A1, “Therapeutic Agent for Keratoconjunctival Disorder” (priority 2005, published 2009):
# System: corneal disorder models
# Assay: Test for therapeutic effect on corneal disorder (exorbital lacrimal gland removal model, fluorescein staining score)
# Type: in vivo, male SD rats
# Procedure: Using male SD rats, corneal disorder models were produced in accordance with the method of Fujihara et al. (Invest. Opthalmol. Vis. Sci. 42 (1): 96-100 (2001)). After the production of the corneal disorder models, the corneal disorder score was evaluated in accordance with the method of Murakami et al. (Journal of the eye 21 (1): 87-90 (2004)), and the improvement ratio of corneal disorder after instillation of eprosartan mesylate (hereinafter referred to as “Compound A”) was obtained.
# As test animals, male SD rats were used, and systemic anesthesia was given to the rats by administration of Nembutal. Subsequently the exorbital lacrimal gland was removed and a corneal disorder was induced over a period of 2 months.
# Then, Compound A was administered as follows.
# A phosphate-buffered saline solution (PBS solution) containing Compound A (0.1%) was instilled into both eyes 6 times a day for 14 days (instilled amount: 5 μL/dose) (one group consisting of 4 animals, 8 eyes).
# In a control group, PBS solution was instilled into both eyes 6 times a day for 14 days (instilled amount: 5 μL/dose) (one group consisting of 4 animals, 8 eyes).
# Fourteen days after the start of instillation, the damaged parts of the cornea were stained with fluorescein. For each of the upper, middle and lower parts of the cornea, the degree of fluorescein staining was evaluated by scoring according to the criteria shown below and the improvement ratio of corneal disorder was calculated from the mean value of the total scores for each of the above-mentioned parts.
# Also for normal eyes, the mean value of the total scores for each of the above-mentioned parts was obtained. […]
# By taking the mean value of the total scores for the control group (PBS solution) as a standard (improvement ratio: 0%) and according to the calculation formula shown below, the improvement ratio in the Compound A instillation group was calculated, which is shown in Table 1. […]
smiles,measurement,setting,value
"CCCCc1ncc(/C=C(\Cc2cccs2)C(=O)O)n1Cc1ccc(C(=O)O)cc1 [Compound A, (E)-a-[[2-n-butyl-1-[(4-carboxyphenyl)methyl]-1H-imidazol-5-yl]methylene]-2-thiophenepropionic acid monomethanesulfonate]",Improvement ratio (%),"0.1% in PBS instilled 6 times a day for 14 days, {(control)-(Compound A)}/((control)-(normal eye))x100, control = 0%",84.8%
same,Improvement of corneal damage (in words),"rats, Table 1, 0.1% instillation for 14 days",significantly improved a corneal damage
same,Mean value of scores,"total fluorescein staining score (upper, middle, lower cornea, each 0-3), 0.1% in PBS instilled into both eyes 6 times a day for 14 days, mean of 8 eyes, control 6.1, normal eye 2.8",3.3
